pIC50: −log10 of the molar value. Bounds are passed on as bounds.

The source of these data is ChEMBL document CHEMBL6103556, “Design and evaluation of anaplastic lymphoma kinase degraders using a covalent fumarate handle” (Bioorg Med Chem Lett, 2025).

The test system of experiment [1] is NCI-H3122. Put plainly: cells. The conditions noted are these: Homo sapiens, NCI-H3122, 72 h.
Description: Antiproliferative activity against human NCI-H3122 cells expressing EML4-ALK fusion assessed as cell growth inhibition incubated for 72 hrs by CellTiter-Glo assay
The subject of experiment [2] is Epidermal growth factor receptor (Homo sapiens), P00533 [L858R]. Put plainly: Inhibition of EGFR L858R (unknown origin) at 1 uM by Eurofins kinase profiler method relative to control.
Experiment [3] has as its system NCI-H3122. Kind of experiment: Antiproliferative activity against human NCI-H3122 cells transfected with siRNF126 assessed as cell growth inhibition measured after 72 hrs by CellTiter-Glo assay. The class given is functional. In general terms: Cellular ATP, detected with luciferase, serves as a proxy for viable cell number.
Experiment [4] concerns the target Insulin receptor (Homo sapiens) (UniProt P06213). Kind of experiment: Inhibition of IR (unknown origin) at 1 uM by Eurofins kinase profiler method relative to control.
In experiment [5] the target is T1, Proto-oncogene tyrosine-protein kinase ROS (Homo sapiens, UniProt P08922). Put plainly: Inhibition of ROS (unknown origin) at 1 uM by Eurofins kinase profiler method relative to control.
In experiment [6] the target is Insulin-like growth factor 1 receptor (Homo sapiens) (UniProt P08069). Put plainly: Inhibition of IGF-1R (unknown origin) at 1 uM by Eurofins kinase profiler method relative to control.
For experiment [7], the target named is Epidermal growth factor receptor (Homo sapiens, UniProt P00533, L858R). Put plainly: Inhibition of EGFR L858R (unknown origin) by Eurofins kinase profiler method.
The target in experiment [8] is T1, Proto-oncogene tyrosine-protein kinase ROS. Put plainly: Inhibition of ROS (unknown origin) by Eurofins kinase profiler method.
Experiment [9] has as its system NCI-H3122. Put plainly: Induction of EML4-ALK degradation in human NCI-H3122 cells assessed as reduction in ALK level by measuring fold change at 100 nM measured after 24 hrs by Western blot analysis (reference value: […]). The class given is cell-based. On the technique in general: A western blot detects proteins with antibodies after separation by electrophoresis.

T1 sequence (P08922 whole entry): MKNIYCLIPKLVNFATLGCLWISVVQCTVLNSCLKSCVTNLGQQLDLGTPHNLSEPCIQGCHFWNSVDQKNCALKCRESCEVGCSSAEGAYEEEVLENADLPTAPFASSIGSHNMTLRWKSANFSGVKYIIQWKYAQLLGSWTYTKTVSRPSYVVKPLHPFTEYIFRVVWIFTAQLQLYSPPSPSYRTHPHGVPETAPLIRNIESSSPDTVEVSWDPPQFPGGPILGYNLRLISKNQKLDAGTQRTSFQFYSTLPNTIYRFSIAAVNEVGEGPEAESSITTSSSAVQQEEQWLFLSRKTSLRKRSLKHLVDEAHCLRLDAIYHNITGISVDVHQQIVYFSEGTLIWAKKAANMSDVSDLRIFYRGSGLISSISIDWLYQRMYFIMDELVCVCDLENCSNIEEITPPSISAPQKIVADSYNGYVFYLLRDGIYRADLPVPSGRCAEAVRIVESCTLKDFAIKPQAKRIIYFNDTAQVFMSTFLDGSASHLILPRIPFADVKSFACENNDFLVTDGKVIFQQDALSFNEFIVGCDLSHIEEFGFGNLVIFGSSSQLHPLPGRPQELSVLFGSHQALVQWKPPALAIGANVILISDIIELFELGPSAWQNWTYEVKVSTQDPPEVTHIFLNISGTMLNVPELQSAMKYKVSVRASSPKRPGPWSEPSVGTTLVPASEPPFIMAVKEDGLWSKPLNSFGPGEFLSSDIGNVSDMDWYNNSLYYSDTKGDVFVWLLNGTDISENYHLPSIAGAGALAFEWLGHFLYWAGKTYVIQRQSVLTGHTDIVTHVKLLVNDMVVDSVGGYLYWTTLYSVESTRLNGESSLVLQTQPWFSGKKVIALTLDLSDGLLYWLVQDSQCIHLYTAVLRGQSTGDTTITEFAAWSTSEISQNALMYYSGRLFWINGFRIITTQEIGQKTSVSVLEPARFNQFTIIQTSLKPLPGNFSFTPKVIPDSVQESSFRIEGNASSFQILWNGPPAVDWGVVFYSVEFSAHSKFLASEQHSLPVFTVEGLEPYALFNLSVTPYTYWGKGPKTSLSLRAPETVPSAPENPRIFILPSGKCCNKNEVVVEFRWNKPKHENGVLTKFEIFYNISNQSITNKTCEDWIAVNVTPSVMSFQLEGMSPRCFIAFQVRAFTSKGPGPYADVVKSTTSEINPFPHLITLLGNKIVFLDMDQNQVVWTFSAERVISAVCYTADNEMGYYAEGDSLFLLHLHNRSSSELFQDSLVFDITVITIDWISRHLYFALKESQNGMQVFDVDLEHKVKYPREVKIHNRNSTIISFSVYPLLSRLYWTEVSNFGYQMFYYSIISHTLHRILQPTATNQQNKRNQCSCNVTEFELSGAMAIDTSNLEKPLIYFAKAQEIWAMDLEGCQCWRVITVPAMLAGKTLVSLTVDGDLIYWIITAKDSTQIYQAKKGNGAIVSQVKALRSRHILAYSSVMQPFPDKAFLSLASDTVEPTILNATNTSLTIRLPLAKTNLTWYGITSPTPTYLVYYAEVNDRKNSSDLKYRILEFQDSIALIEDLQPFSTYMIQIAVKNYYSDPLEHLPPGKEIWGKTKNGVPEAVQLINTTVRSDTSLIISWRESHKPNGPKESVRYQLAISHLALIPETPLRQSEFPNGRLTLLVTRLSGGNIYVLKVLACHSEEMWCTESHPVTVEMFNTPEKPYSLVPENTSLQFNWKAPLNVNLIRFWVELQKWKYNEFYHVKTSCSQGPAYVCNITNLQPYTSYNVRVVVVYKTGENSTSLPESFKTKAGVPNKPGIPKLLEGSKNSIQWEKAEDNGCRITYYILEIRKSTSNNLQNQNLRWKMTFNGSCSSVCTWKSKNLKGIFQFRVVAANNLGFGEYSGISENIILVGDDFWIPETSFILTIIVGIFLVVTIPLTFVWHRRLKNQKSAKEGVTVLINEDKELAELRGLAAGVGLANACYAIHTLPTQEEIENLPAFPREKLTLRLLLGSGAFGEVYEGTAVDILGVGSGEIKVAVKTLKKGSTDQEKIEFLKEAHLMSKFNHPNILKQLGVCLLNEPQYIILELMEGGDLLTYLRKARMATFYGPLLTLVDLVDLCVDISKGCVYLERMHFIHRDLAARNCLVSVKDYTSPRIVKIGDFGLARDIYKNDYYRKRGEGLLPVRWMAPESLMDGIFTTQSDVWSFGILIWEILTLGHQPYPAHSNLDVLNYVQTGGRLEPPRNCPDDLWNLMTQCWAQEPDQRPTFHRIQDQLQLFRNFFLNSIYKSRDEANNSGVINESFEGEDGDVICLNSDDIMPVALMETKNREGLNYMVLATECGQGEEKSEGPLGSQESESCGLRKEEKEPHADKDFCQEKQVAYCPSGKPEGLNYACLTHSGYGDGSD
Epidermal growth factor receptor, sequence (P00533 25-1210 L858R limits assumed): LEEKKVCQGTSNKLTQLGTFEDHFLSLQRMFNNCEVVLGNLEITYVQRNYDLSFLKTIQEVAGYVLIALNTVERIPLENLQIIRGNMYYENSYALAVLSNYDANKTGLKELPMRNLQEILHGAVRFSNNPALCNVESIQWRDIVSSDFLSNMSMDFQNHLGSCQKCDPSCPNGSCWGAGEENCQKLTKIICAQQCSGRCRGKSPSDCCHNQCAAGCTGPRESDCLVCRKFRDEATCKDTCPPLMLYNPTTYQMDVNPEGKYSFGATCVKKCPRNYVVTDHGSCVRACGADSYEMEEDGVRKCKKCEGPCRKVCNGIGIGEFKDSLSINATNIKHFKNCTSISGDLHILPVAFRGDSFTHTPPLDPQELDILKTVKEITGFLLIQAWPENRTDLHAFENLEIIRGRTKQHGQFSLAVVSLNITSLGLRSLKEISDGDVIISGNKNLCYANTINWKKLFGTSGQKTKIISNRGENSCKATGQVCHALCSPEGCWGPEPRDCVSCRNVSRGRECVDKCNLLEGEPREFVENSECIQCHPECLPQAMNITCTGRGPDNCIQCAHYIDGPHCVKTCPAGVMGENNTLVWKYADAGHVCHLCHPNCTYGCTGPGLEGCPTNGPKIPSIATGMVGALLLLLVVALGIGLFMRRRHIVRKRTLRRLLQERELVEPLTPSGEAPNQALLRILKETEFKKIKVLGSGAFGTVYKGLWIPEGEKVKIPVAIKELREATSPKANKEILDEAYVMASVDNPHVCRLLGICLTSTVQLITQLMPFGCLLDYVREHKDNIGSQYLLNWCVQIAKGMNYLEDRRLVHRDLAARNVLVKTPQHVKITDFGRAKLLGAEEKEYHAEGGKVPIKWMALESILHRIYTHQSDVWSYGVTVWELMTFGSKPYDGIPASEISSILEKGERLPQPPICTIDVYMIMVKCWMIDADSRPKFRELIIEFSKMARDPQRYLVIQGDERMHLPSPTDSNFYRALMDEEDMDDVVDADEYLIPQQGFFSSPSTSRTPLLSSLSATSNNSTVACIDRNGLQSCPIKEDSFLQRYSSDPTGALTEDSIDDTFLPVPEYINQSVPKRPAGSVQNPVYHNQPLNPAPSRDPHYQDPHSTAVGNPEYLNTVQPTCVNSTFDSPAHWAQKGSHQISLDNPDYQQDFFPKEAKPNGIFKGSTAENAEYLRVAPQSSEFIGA
Epidermal growth factor receptor (Homo sapiens), P00533 [L858R], sequence (P00533 whole entry L858R): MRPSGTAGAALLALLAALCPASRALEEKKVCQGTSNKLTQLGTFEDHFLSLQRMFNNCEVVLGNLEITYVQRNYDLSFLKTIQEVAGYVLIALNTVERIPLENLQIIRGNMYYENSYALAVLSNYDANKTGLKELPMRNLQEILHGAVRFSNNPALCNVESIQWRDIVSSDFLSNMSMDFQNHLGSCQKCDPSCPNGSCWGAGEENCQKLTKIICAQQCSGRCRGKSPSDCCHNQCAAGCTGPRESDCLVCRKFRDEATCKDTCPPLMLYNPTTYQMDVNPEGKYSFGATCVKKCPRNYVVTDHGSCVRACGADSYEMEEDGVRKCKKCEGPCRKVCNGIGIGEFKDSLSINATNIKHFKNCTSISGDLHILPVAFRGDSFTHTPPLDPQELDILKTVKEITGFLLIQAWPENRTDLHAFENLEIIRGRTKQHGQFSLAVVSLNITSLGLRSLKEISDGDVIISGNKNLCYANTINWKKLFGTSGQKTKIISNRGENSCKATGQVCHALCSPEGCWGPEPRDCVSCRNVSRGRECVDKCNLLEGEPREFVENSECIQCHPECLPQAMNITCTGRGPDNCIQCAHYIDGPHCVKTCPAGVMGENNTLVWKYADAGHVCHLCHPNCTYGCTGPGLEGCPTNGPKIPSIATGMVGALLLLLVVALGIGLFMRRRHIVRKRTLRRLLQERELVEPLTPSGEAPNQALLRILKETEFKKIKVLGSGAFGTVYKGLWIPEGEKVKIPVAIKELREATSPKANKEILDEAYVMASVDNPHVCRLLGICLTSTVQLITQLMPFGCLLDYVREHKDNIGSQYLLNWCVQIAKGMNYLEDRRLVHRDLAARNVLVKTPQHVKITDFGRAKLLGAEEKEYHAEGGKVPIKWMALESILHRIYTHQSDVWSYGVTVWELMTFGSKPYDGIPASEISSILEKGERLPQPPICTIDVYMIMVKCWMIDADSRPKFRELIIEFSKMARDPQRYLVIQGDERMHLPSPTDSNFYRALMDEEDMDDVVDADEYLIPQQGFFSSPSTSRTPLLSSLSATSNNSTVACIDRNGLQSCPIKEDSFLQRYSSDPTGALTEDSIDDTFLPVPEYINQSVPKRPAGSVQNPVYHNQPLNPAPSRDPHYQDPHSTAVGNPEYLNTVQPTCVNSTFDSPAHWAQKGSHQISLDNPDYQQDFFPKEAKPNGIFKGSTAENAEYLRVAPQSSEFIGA

As usually defined, the GI50 is the concentration giving 50% growth inhibition. As to `CCc1cc2c(cc1N1CCC(N3CCN(C(=O)CCC(=O)c4ccc(OC)cc4)CC3)CC1)C(C)(C)c1[nH]c3cc(C#N)ccc3c1C2=O`, the GI50 with NCI-H3122 [1] is more than 5000 nM.
For orientation: inhibition means how much of the control response was suppressed. A high value points to a response far below the control. The pIC50 is −log10 of the IC50, conventionally taken in molar units. A high value points to a small IC50. Regarding `COc1ccc(C(=O)/C=C/C(=O)N2CCN(C3CCN(c4ccc(Nc5ncc(Cl)c(Nc6ccccc6P(C)(C)=O)n5)c(OC)c4)CC3)CC2)cc1`, the inhibition in experiment [2] turned out to be 82%; in experiment [4], 48%; in experiment [5], 73%; in experiment [6], 44%. For the same molecule, the GI50 in the experiment on NCI-H3122 [3] and with NCI-H3122 [1] was 2 nM in each case. For the same molecule, the negative-log IC50 (pIC50) is 7.01 in experiment [7] and 6.73 in experiment [8].
In the experiment with NCI-H3122 [1], `CCc1cc2c(cc1N1CCC(N3CCOCC3)CC1)C(C)(C)c1[nH]c3cc(C#N)ccc3c1C2=O` [ALECTINIB] gave a concentration for 50% growth inhibition (GI50) of 23 nM.
Turning to `COc1ccc(C(=O)CCC(=O)N2CCN(C3CCN(c4ccc(Nc5ncc(Cl)c(Nc6ccccc6P(C)(C)=O)n5)c(OC)c4)CC3)CC2)cc1`, the results for the GI50 in the experiment with NCI-H3122 [3] and in the experiment on NCI-H3122 [1] were 111 nM and 66 nM, respectively.
Regarding `CC(C)C[C@H](NC(=O)[C@H](Cc1ccccc1)NC(=O)c1cnccn1)B(O)O`, in the experiment on NCI-H3122 [9], the fold change (FC) turned out to be 1.
For `COc1ccc(C(=O)/C=C/C(=O)N2CCC(c3cc(OC(C)C)c(Nc4ncc(Cl)c(Nc5ccccc5S(=O)(=O)C(C)C)n4)cc3C)CC2)cc1`, the 50% growth inhibitory concentration (GI50) in the experiment with NCI-H3122 [1] amounted to 209 nM.
`COc1ccc(C(=O)CCC(=O)N2CCC(n3cc(-c4cnc(N)c(O[C@H](C)c5c(Cl)ccc(F)c5Cl)c4)cn3)CC2)cc1` registered a GI50 in the experiment with NCI-H3122 [1] of 1100 nM.
In turn, `CCc1cc2c(cc1N1CCC(N3CCN(C(=O)/C=C/C(=O)c4ccc(OC)cc4)CC3)CC1)C(C)(C)c1[nH]c3cc(C#N)ccc3c1C2=O` gave a GI50 with NCI-H3122 [1] of 88 nM.
`COc1ccc(C(=O)CCC(=O)N2CCC(c3cc(OC(C)C)c(Nc4ncc(Cl)c(Nc5ccccc5S(=O)(=O)C(C)C)n4)cc3C)CC2)cc1`: it took 747 nM to inhibit growth in the experiment with NCI-H3122 [1] by half (GI50).
In turn, `Cc1cc(Nc2ncc(Cl)c(Nc3ccccc3S(=O)(=O)C(C)C)n2)c(OC(C)C)cc1C1CCNCC1` [CERITINIB] returned a concentration for 50% growth inhibition (GI50) in the experiment on NCI-H3122 [1] of 23 nM.
As to `COc1cc(N2CCC(N3CCN(C)CC3)CC2)ccc1Nc1ncc(Cl)c(Nc2ccccc2P(C)(C)=O)n1` [BRIGATINIB], the values for the concentration for 50% growth inhibition (GI50) in the experiment with NCI-H3122 [3] and with NCI-H3122 [1] were 43 nM and 35 nM, respectively.
Regarding `COc1ccc(C(=O)/C=C/C(=O)N2CCC(n3cc(-c4cnc(N)c(O[C@H](C)c5c(Cl)ccc(F)c5Cl)c4)cn3)CC2)cc1`, halving of growth in the experiment with NCI-H3122 [1] (GI50) required 56 nM.
